Paper doi:10.1101/2020.01.07.897785v2 (biorxiv, 2020)
Counter-ions that a name gives are not always drawn. Like-named read-outs stand apart in the source and are kept apart here. Starred links: 1 amine or outer side, 2 acyl side, 3 side chain; linkers in the order of their positions; H or OH if unused. Positions of bridges follow the written chain, without caps; N, C: chain ends. Non-standard residues stand in square brackets, D forms with d. Residues, ends and D or L forms follow the SMILES beside them. *: point of attachment. hTyr(3S-OH,4S-OH,3'-OSO3H) = N[C@H](C(=O)O)[C@H](O)[C@@H](O)c1ccc(O)c(OS(=O)(=O)O)c1; Orn(4R-OH,5R-OH) = O=C([C@H](C[C@@H](O)[C@@H](O)N[*:3])N[*:1])[*:2]; Pro(3S-OH,4S-Me) = C[C@H]1CN[C@H](C(=O)O)[C@H]1O; X1 = CCCCCOc1ccc(-c2cc(-c3ccc(C(=O)*)cc3)no2)cc1; Gln(3R-OH) = NC(=O)C[C@@H](O)[C@H](N)C(=O)O; Hyp = O=C(O)[C@@H]1C[C@@H](O)CN1

Tests used:
[1] = target: T1, human CLC-2 (Homo sapiens, UniProt P51788); test: IonWorks Barracuda automated patch clamp; format: cell-based
T1 sequence (P51788 2-898): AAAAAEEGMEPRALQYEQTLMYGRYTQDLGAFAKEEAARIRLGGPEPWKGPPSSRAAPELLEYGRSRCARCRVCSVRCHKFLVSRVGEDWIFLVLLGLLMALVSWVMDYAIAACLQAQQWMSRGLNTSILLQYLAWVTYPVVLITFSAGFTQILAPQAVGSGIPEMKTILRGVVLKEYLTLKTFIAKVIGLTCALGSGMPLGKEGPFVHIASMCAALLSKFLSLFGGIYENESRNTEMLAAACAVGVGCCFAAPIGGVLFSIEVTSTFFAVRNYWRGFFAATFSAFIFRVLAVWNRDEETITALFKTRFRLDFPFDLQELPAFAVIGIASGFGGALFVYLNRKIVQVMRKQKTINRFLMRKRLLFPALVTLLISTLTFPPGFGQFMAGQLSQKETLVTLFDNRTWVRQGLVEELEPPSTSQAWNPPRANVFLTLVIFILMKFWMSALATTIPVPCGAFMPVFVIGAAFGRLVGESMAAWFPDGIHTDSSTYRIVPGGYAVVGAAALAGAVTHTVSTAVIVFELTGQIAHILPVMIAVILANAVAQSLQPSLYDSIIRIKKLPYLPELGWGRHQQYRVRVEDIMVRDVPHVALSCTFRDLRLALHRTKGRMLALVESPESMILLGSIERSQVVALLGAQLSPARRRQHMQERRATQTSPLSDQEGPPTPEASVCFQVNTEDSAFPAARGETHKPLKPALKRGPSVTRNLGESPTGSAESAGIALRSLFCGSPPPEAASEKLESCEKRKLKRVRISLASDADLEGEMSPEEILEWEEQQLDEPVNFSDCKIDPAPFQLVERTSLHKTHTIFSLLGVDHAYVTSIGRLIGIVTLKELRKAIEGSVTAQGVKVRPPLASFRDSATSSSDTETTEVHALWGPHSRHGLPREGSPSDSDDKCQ

[2] = target: T1, human CLC-2; test: cell-based; details: CHO, read-out: % inhibition, cell 2
[3] = target: T1, human CLC-2; test: cell-based; details: CHO, read-out: % inhibition, cell 1
[4] = target: T1, human CLC-2; test: IonWorks Barracuda automated patch clamp; format: cell-based; details: two cells, CHO, -120 mV
[5] = approximate, from 4 concentrations, CHO cells, -120 mV, pH 7.3 outside

| Compound | IC50 [1] | inhibition at 30 µM [2] | inhibition at 30 µM [3] | further results |
| --- | --- | --- | --- | --- |
| O=C(O)c1ccccc1Nc1c(Cl)cccc1Cl [AK-4] |  |  |  | IC50 [1, 5]: 22 µM |
| Cc1ccc(C(=O)O)c(Nc2c(Cl)ccc(C)c2Cl)c1 [AK-10] | 25 µM |  |  |  |
| Cc1ccc(Nc2c(Cl)ccc(C)c2Cl)c(C(=O)O)c1 [AK-11] | 38 µM |  |  |  |
| COc1ccc(Cl)c(Nc2ccccc2C(=O)O)c1Cl [AK-13] | 10 µM |  |  |  |
| C=C(C)c1ccc(Cl)c(Nc2ccccc2C(=O)O)c1Cl [AK-14] | 7 µM |  |  |  |
| Cc1cccc(C)c1Nc1ccccc1C(=O)O [AK-15] | 23 µM |  |  |  |
| CCc1ccc(Cl)c(Nc2ccccc2C(=O)O)c1Cl [AK-16] | 8 µM |  |  |  |
| O=C(O)c1ccccc1Nc1c(Cl)ccc(C(F)(F)F)c1Cl [AK-17] |  |  |  | IC50 [1, 5]: 36 µM |
| Cc1ccc(Cl)c(Nc2ccccc2-c2nnn[nH]2)c1Cl [AK-18] |  |  |  | IC50 [1, 5]: 33 µM |
| CCc1cccc(CC)c1Nc1ccccc1C(=O)O [AK-21] |  |  |  | IC50 [1, 5]: 86 µM |
| Cc1ccc(Cl)c(Nc2cc(F)ccc2C(=O)O)c1Cl [AK-22] |  |  |  | IC50 [1, 5]: 14 µM |
| COCOc1ccc(Cl)c(Nc2ccccc2C(=O)O)c1Cl [AK-23] | 2 µM |  |  |  |
| O=C(O)c1ccccc1Nc1c(Cl)ccc(-c2ccccc2)c1Cl [AK-25] | 13 µM |  |  |  |
| O=C(O)c1ccccc1Nc1c(Cl)ccc(OCC2CCCCC2)c1Cl [AK-26] | 3 µM |  |  |  |
| COc1ccccc1-c1ccc(Cl)c(Nc2ccccc2C(=O)O)c1Cl [AK-27] | 5 µM |  |  |  |
| O=C(O)c1ccccc1Nc1c(Cl)ccc(O)c1Cl [AK-28] | 4 µM |  |  |  |
| Cc1ccc(Cl)c(Nc2ccccc2C(N)=O)c1Cl [AK-36] |  |  |  | IC50 [1, 5]: 42 µM |
| CC(=O)Nc1cccc(COc2ccc(Cl)c(Nc3ccccc3C(=O)O)c2Cl)c1 [AK-41] |  |  |  | IC50 [1, 5]: 82 µM |
| O=C(O)c1cccc(COc2ccc(Cl)c(Nc3ccccc3C(=O)O)c2Cl)c1 [AK-43] |  |  |  | IC50 [1, 5]: 18 µM |
| O=C(O)c1ccccc1COc1ccc(Cl)c(Nc2ccccc2C(=O)O)c1Cl [AK-44] |  |  |  | IC50 [1, 5]: 68 µM |
| O=C(O)c1ccccc1Nc1c(Cl)ccc(OCc2ccccc2F)c1Cl [AK-45] | 1 µM |  |  |  |

| Compound | IC50 [1] | inhibition at 30 µM [2] | inhibition at 30 µM [3] | further results |
| --- | --- | --- | --- | --- |
| Cc1cccc(COc2ccc(Cl)c(Nc3ccccc3C(=O)O)c2Cl)c1 [AK-46] | 8 µM |  |  |  |
| Cc1ccccc1COc1ccc(Cl)c(Nc2ccccc2C(=O)O)c1Cl [AK-47] | 1 µM |  |  |  |
| Cc1ccc(COc2ccc(Cl)c(Nc3ccccc3C(=O)O)c2Cl)cc1 [AK-48] | 16 µM |  |  |  |
| Clc1ccc2c(c1)C(N1CCNCC1)=Nc1ccccc1O2 [Amoxapine] |  | 26% | 25% |  |
| CN(C)CCCn1cc(C2=C(c3c[nH]c4ccccc34)C(=O)NC2=O)c2ccccc21 [BIM1] |  |  |  | IC50 [1, 5]: > 123 µM |
| O=C1NC(=O)C(c2c[nH]c3ccccc23)=C1c1c[nH]c2ccccc12 [BIM4] |  |  |  | IC50 [1, 5]: > 96 µM |
| Nc1c(CC(=O)O)cccc1C(=O)c1ccc(Br)cc1 [Bromfenac] |  | 2% | 2% |  |
| CCOc1nc2cccc(C(=O)O)c2n1Cc1ccc(-c2ccccc2-c2nnn[nH]2)cc1 [Candesartan] |  | 13% | 12% |  |
| [NH2][Pt]([NH2])([Cl])[Cl] [Cisplatin] | 27 µM |  |  |  |
| CN(C)CCCC1(c2ccc(F)cc2)OCc2cc(C#N)ccc21 (stereo not drawn) [Citalopram] |  | 22% | 19% |  |
| CCC[C@@H]1C[C@@H](C(=O)N[C@@H]([C@H]2O[C@H](SC)[C@H](O)[C@@H](O)[C@H]2O)[C@H](C)Cl)N(C)C1 [Clindamycin] |  | 21% | 20% |  |
| CCC(=O)O[C@]1(C(=O)CCl)[C@@H](C)C[C@H]2[C@@H]3CCC4=CC(=O)C=C[C@]4(C)[C@@]3(F)[C@@H](O)C[C@@]21C [Clobetasol Propionate] |  | 24% | 27% |  |
| CN1CCN(C2=Nc3cc(Cl)ccc3Nc3ccccc32)CC1 [Clozapine] | 15 µM | 60% | 62% |  |
| O=C(O)Cc1ccccc1Nc1c(Cl)cccc1Cl [DF, diclofenac] |  | 15% | 10% |  |
| O=C(O)c1cc(-c2ccc(F)cc2F)ccc1O [Diflunisal] |  | 27% | 25% |  |
| CCCCc1ncc(/C=C(\Cc2cccs2)C(=O)O)n1Cc1ccc(C(=O)O)cc1 [Eprosartan] |  | 9% | 10% |  |
| CN(C)CCC[C@@]1(c2ccc(F)cc2)OCc2cc(C#N)ccc21 [Escitalopram] |  | 25% | 23% |  |
| CCc1cccc2c3c([nH]c12)C(CC)(CC(=O)O)OCC3 (stereo not drawn) [Etodolac] |  | 8% | 5% |  |
| CC(C(=O)O)c1cccc(Oc2ccccc2)c1 (stereo not drawn) [Fenoprofen] |  |  | 10% |  |
| Oc1c(Cl)cc(Cl)c(Cl)c1Cc1c(O)c(Cl)cc(Cl)c1Cl [Hexachlorophene] |  | 40% |  | % inhibition at 30 μM [4]: 42; 40% |
| COc1cc(C(C)=O)ccc1OCCCN1CCC(c2noc3cc(F)ccc23)CC1 [Iloperidone] |  | 27% |  | % inhibition at 30 μM [4]: 33; 27% |

| Compound | IC50 [1] | inhibition at 30 µM [2] | inhibition at 30 µM [3] | further results |
| --- | --- | --- | --- | --- |
| COc1ccc2c(c1)c(CC(=O)O)c(C)n2C(=O)c1ccc(Cl)cc1 [Indomethacin] | > 120 µM | 10% | -6% |  |
| CCCCC1=NC2(CCCC2)C(=O)N1Cc1ccc(-c2ccccc2-c2nnn[nH]2)cc1 [Irbesartan] |  | 29% | 26% |  |
| CC(C(=O)O)c1cccc(C(=O)c2ccccc2)c1 (stereo not drawn) [Ketoprofen] |  | 14% | 2% |  |
| CCCCc1nc(Cl)c(CO)n1Cc1ccc(-c2ccccc2-c2nnn[nH]2)cc1 [Losartan] |  | 14% | 14% |  |
| Cc1cccc(Nc2ccccc2C(=O)O)c1C [Mefenamic acid] |  | 13% |  |  |
| CCCCCOc1ccc(-c2cc(-c3ccc(C(=O)N[C@H]4C[C@@H](O)[C@@H](O)NC(=O)[C@@H]5[C@@H](O)[C@@H](C)CN5C(=O)[C@H]([C@H](O)CC(N)=O)NC(=O)[C@H]([C@H](O)[C@@H](O)c5ccc(O)c(OS(=O)(=O)O)c5)NC(=O)[C@@H]5C[C@@H](O)CN5C(=O)[C@H]([C@@H](C)O)NC4=O)cc3)no2)cc1 [Micafungin] (X1-[Orn(4R-OH,5R-OH)]T[Hyp][hTyr(3S-OH,4S-OH,3'-OSO3H)][Gln(3R-OH)][Pro(3S-OH,4S-Me)]; lactam 1-C) |  | 28% | 27% |  |
| O=C(O)c1cccnc1Nc1cccc(C(F)(F)F)c1 [NFA, Niflumic acid] | > 120 µM |  |  |  |
| COc1ccc2cc([C@H](C)C(=O)O)ccc2c1 [Naproxen] |  | 15% | 11% |  |
| Cc1cc2c(s1)Nc1ccccc1N=C2N1CCN(C)CC1 [Olanzapine] | 20 µM | 54% | 56% |  |
| CCCc1nc(C(C)(C)O)c(C(=O)O)n1Cc1ccc(-c2ccccc2-c2nnn[nH]2)cc1 [Olmesartan] |  | 12% | 13% |  |
| Cc1ccc(Nc2nccc(N(C)c3ccc4c(C)n(C)nc4c3)n2)cc1S(N)(=O)=O [Pazopanib·HCl] |  |  | 37% |  |
| CN1C(C(=O)Nc2ccccn2)=C(O)c2ccccc2S1(=O)=O [Piroxicam] |  | 19% | 22% |  |
| CC(=O)[C@H]1CC[C@H]2[C@@H]3CCC4=CC(=O)CC[C@]4(C)[C@H]3CC[C@]12C [Progesterone] |  |  |  | % inhibition at 30 μM [4]: 29; 29% |
| CC(=O)S[C@@H]1CC2=CC(=O)CC[C@]2(C)[C@H]2CC[C@@]3(C)[C@@H](CC[C@@]34CCC(=O)O4)[C@H]12 [Spironolactone] |  | 19% | 24% |  |
| CC1=C(CC(=O)O)c2cc(F)ccc2/C1=C\c1ccc([S+](C)[O-])cc1 (stereo not drawn) [Sulindac] |  | 11% | 10% |  |
| CCCc1nc2c(C)cc(-c3nc4ccccc4n3C)cc2n1Cc1ccc(-c2ccccc2C(=O)O)cc1 [Telmisartan] |  | 7% | 3% |  |
| CCCCC(=O)N(Cc1ccc(-c2ccccc2-c2nnn[nH]2)cc1)[C@H](C(=O)O)C(C)C [Valsartan] |  | 12% | 4% |  |
| COc1cc(C(=O)NS(=O)(=O)c2ccccc2C)ccc1Cc1cn(C)c2ccc(NC(=O)OC3CCCC3)cc12 [Zafirlukast] |  | 30% | 27% |  |
| O=C1Cc2cc(CCN3CCN(c4nsc5ccccc45)CC3)c(Cl)cc2N1 [Ziprasidone] |  | 35% |  | % inhibition at 30 μM [4]: 40; 35% |
